# Paper PMC5394417, “Investigating the molecular mechanism of positive and negative allosteric modulators in the calcium-sensing receptor dimer” (Scientific Reports, 2017)
# pEC50: −log10 of the molar value.
# Target: T1, HA-E297A CaSR mutant (Rattus norvegicus, UniProt P48442, E297A)
# T1 construct: mGluR5 signal peptide (N); expressed in transfected cells; host or cells: HEK293T
# T1 sequence (P48442 20-1079 E297A): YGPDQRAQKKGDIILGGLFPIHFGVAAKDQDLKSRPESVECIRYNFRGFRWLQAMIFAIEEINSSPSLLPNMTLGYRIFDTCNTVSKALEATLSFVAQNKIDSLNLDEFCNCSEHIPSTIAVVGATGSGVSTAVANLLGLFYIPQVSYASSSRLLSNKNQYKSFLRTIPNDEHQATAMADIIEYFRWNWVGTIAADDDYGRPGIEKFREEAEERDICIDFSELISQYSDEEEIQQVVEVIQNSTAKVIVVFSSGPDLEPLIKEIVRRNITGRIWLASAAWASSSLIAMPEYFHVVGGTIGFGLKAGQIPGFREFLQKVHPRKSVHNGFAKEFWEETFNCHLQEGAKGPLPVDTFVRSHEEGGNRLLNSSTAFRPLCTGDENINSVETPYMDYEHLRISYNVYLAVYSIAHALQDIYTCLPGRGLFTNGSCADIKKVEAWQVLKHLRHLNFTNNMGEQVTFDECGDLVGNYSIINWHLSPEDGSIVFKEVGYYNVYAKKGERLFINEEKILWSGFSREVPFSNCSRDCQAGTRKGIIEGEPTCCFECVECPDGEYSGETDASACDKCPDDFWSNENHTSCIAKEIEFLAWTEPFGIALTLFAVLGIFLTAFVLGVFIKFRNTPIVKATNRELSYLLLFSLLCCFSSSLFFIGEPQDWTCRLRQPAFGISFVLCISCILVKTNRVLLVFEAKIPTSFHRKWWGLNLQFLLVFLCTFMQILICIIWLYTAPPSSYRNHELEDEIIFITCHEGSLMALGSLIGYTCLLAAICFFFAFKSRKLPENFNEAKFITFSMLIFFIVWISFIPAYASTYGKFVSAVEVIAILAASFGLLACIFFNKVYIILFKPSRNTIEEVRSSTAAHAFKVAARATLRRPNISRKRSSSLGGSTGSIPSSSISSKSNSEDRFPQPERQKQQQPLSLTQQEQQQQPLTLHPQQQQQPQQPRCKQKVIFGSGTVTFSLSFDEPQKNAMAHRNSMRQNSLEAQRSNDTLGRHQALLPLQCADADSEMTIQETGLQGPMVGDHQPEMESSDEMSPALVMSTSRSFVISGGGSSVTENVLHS
# Experiment: IP-One assay, HEK293T transiently transfected
# Assay type: cell-based
# Description: Human embryonic kidney (HEK) 293T cells were cultured in DMEM supplemented with 10% dFBS and 1% P/S at 37 °C and 5% CO2. 48 h prior to assay, transient transfection was performed using Lipofectamine 2000 as the transfection reagent. White opaque 96-well culture plates (PerkinElmer, Waltham, MA, USA) were used for the ELISA and the TR-FRET dimerization assay, while clear tissue culture treated 96-well plates (Corning, Corning, NY, USA) were used for the IP-One assay. Both plate types were coated with poly-D-lysine before addition of cells and transfection mix. 0.25 μl/well of Lipofectamine 2000 were diluted in 25 μl/well of Opti-MEM and incubated at room temperature (RT) for 5 min. 0.03 μg/well of DNA was diluted in 25 μl/well of Opti-MEM, and subsequently mixed with the Lipofectamine 2000 dilution and incubated 20 min at RT before addition to the plates. Cell suspensions of 170.000 HEK293T cells/mL were prepared in complete growth medium and 100 μl/well (17.000 cells/well) was added to the plates, which were incubated for 48 h at 37 °C and 5% CO2 before performing assays.
# Functional activity was measured using the IP-One assay, which is an IP1 accumulation assay. For agonist testing, ligands were prepared in final concentrations in ligand buffer (HBSS, 20 mM HEPES, pH 7.4 supplemented with 20 mM LiCl). Cells were washed once with 100 μl/well of assay buffer (HBSS, 20 mM HEPES, pH 7.4) and 50 μl/well of agonist solution was added after which plates were incubated at 37 °C for 30 min. Subsequently, ligand solutions were removed and cells were washed with 100 μl/well of assay buffer. Cell lysis was performed by addition of 30 μl/well of IP-One Conjugate & Lysis Buffer (Cisbio Bioassays, Codolet, France) and plates were incubated at RT for 30 min. Afterwards, 30 μl/well of assay buffer was added to dilute the cell lysate. 10 μl/well of cell lysate was transferred from the 96-well plate to a 384-well Optiplate and 10 μl/well of detection solution (Assay buffer + 2.5% of anti-IP1 antibody cryptate Terbium conjugate + 2.5% IP1-d2 conjugate (Cisbio Bioassays, Codolet, France)) was also added. The 384-well plate was incubated for 1 h at RT in dark before being measured on an EnVision plate reader (PerkinElmer, Waltham, MA, USA). Upon excitation at 340 nm, emission at 615 nm and 665 nm was measured, and the FRET ratio (665 nm/615 nm) was converted to IP1 concentrations by interpolating values from an IP1 standard curve generated from a provided IP1 calibrator (Cisbio Bioassays, Codolet, France). When testing allosteric modulators, cells were pre-incubated for 30 min at 37 °C with 50 μl/well of ligand buffer supplemented with allosteric modulator and a final concentration of 1% DMSO. Afterwards, the buffer solution was removed and 50 μl/well of agonist solution in ligand buffer supplemented with allosteric modulator and a final concentration of 1% DMSO was added. Plates were incubated for 30 min at 37 °C followed by one wash in 100 μl/well of assay buffer. Cell lysis and detection was performed as described above.
smiles,measurement,setting,value
[Ca+2] [Ca^2+],pEC50,Ca^2+ alone,2.13
same,Hill coefficient ± S.E.M.,Ca^2+ alone,3.01 ± 0.07
same,Max ± S.E.M.,normalized to maximum response of WT CaSR,130 ± 25%
